From US9365583B2, “Substituted pyrazoles and uses thereof” (Genentech, Inc., priority 2013, dated 2016)

Target: T1, N-terminally GST-tagged DLK (catalytic domain amino acid 1-520) (Homo sapiens, UniProt Q12852)
T1 construct: N-terminally GST-tagged DLK (catalytic domain amino acid 1-520); purchased Carna Bioscience
T1 sequence (Q12852 1-520): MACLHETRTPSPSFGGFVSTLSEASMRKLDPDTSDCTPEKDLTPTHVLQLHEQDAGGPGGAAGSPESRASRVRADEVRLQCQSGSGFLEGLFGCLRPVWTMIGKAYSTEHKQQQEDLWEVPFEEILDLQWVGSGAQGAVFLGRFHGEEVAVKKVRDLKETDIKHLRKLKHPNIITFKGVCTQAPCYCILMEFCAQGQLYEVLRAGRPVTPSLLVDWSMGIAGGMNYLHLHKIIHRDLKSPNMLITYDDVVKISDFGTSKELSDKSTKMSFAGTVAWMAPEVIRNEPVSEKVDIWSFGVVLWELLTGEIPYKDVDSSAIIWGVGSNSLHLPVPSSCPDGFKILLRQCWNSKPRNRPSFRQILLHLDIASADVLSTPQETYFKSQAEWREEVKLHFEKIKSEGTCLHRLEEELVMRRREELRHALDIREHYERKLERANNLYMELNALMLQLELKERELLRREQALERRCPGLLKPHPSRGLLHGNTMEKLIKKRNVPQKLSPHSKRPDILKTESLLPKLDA
Test: DLK TR-FRET inhibition assay
Assay type: biochemical
Settings: 5 nM GST-DLK, 40 nM HIS-MKK4 K131M substrate, 30 μM ATP, 60 minutes at ambient temperature
In short: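 5 nM GST-DLK (aa 1-520), 40 nM HIS-MKK4 K131M and 30 μM ATP reacted 60 min at ambient temperature in HEPES pH 7.5 buffer with 10 mM MgCl2, compound 1:3 serially diluted from 20 uM. TR-FRET detection of phospho-MKK4 used Eu-cryptate anti-phospho-MKK4 plus D2 anti-HIS, read after 3 h (665/615 nm).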

SMILES	Ki
COC1CCN([C@H]2C[C@@H]3[C@H](C2)[C@H]3c2cc(-c3cnc(N)c(OC(F)F)c3)nn2C(C)C)CC1 [compound 247, 3-(difluoromethoxy)-5-(1-isopropyl-5-((1R,3r,5S,6r)-3-(4-methoxypiperidin-1-yl)bicyclo[3.1.0]hexan-6-yl)-1H-pyrazol-3-yl) pyridin-2-amine]	2.9 nM
COC1CCN([C@H]2C[C@@H]3[C@H](C2)[C@H]3c2cc(-c3cnc(N)c(OC(F)(F)F)c3)nn2C(C)C)CC1 [compound 248, 5-(1-isopropyl-5-((1R,3r,5S,6r)-3-(4-methoxypiperidin-1-yl)bicyclo[3.1.0]hexan-6-yl)-1H-pyrazol-3-yl)-3-(trifluoromethoxy) pyridin-2-amine]	2.8 nM
COC1CCN([C@@H]2C[C@@H]3[C@H](C2)[C@H]3c2cc(-c3cnc(N)c(C(F)(F)F)c3)nn2C(C)C)CC1 [compound 249, 5-(1-isopropyl-5-((1R,3s,5S,6r)-3-(4-methoxypiperidin-1-yl)bicyclo[3.1.0]hexan-6-yl)-1H-pyrazol-3-yl)-3-(trifluoromethyl) pyridin-2-amine]	2.6 nM
COC1CCN([C@@H]2C[C@@H]3[C@H](C2)[C@H]3c2cc(-c3cnc(N)c(OC(F)F)c3)nn2C(C)C)CC1 [compound 250, 3-(difluoromethoxy)-5-(1-isopropyl-5-((1R,3s,5S,6r)-3-(4-methoxy-piperidin-1-yl)bicyclo[3.1.0]hexan-6-yl)-1H-pyrazol-3-yl) pyridin-2-amine]	2 nM
COC1CCN([C@H]2C[C@@H]3[C@H](C2)[C@H]3c2cc(-c3cnc(N)c(C(F)(F)F)c3)nn2C(C)C)CC1 [compound 251, 5-(1-isopropyl-5-((1R,3r,5S,6r)-3-(4-methoxypiperidin-1-yl)bicyclo[3.1.0]hexan-6-yl)-1H-pyrazol-3-yl)-3-(trifluoromethyl) pyridin-2-amine]	2.7 nM
CC(C)n1nc(-c2cnc(N)c(OC(F)F)c2)cc1[C@H]1[C@@H]2C[C@H](NCC(F)F)C[C@@H]21 [compound 252, 5-(5-((1R,3r,5S,6r)-3-((2,2-difluoro-ethyl)amino)bicyclo[3.1.0]hexan-6-yl)-1-isopropyl-1H-pyrazol-3-yl)-3-(difluoromethoxy) pyridin-2-amine]	3 nM
CC(C)n1nc(-c2cnc(N)c(C(F)(F)F)c2)cc1[C@H]1[C@@H]2C[C@H](NCC(F)F)C[C@@H]21 [compound 253, 5-(5-((1R,3r,5S,6r)-3-((2,2-difluoroethyl)amino)bicyclo[3.1.0]hexan-6-yl)-1-isopropyl-1H-pyrazol-3-yl)-3-(trifluoromethyl) pyridin-2-amine]	3.4 nM
CC(C)n1nc(-c2cnc(N)c(C(F)(F)F)c2)cc1[C@H]1[C@@H]2C[C@@H](NCC(F)F)C[C@@H]21 [compound 254, 5-(5-((1R,3s,5S,6r)-3-((2,2-difluoroethyl)amino)bicyclo[3.1.0]hexan-6-yl)-1-isopropyl-1H-pyrazol-3-yl)-3-(trifluoromethyl) pyridin-2-amine]	2.4 nM
CC(C)n1nc(-c2cnc(N)c(OC(F)F)c2)cc1[C@H]1[C@@H]2C[C@@H](NCC(F)F)C[C@@H]21 [compound 255, 5-(5-((1R,3s,5S,6r)-3-((2,2-difluoroethyl)amino)bicyclo[3.1.0]hexan-6-yl)-1-isopropyl-1H-pyrazol-3-yl)-3-(difluoromethoxy) pyridin-2-amine]	1.5 nM
Nc1ncc(-c2cc([C@H]3[C@@H]4C[C@H](N5CCCOCC5)C[C@@H]43)n(CC(F)F)n2)cc1OC(F)(F)F [compound 256, 5-(5-((1R,3r,5S,6r)-3-(1,4-oxazepan-4-yl)bicyclo[3.1.0]hexan-6-yl)-1-(2,2-difluoroethyl)-1H-pyrazol-3-yl)-3-(trifluoromethoxy) pyridin-2-amine]	1.1 nM
CC(C)n1nc(-c2cnc(N)c(OC(F)F)c2)cc1[C@H]1[C@@H]2C[C@@H](N3CCN(CC(F)F)CC3)C[C@@H]21 [compound 257, 5-(5-((1R,3s,5S,6r)-3-(4-(2,2-difluoro-ethyl)piperazin-1-yl)bicyclo [3.1.0]hexan-6-yl)-1-isopropyl-1H-pyrazol-3-yl)-3-(difluoromethoxy)pyridin-2-amine]	0.7 nM
CC(C)n1nc(-c2cnc(N)c(OC(F)F)c2)cc1[C@H]1[C@@H]2C[C@H](N3CCN4CCCC4C3)C[C@@H]21 (stereo partly drawn) [compound 260, 3-(difluoromethoxy)-5-(5-((1R,3r,5S,6r)-3-(hexahydropyrrolo [1,2-a]pyrazin-2(1H)-yl)bicyclo [3.1.0]hexan-6-yl)-1-isopropyl-1H-pyrazol-3-yl)pyridin-2-amine]	0.4 nM
CC(C)n1nc(-c2cnc(N)c(C(F)(F)F)c2)cc1[C@H]1[C@@H]2C[C@H](N3CCN4CCCC4C3)C[C@@H]21 (stereo partly drawn) [compound 262, 5-(5-((1R,3r,5S,6r)-3-(hexa-hydropyrrolo[1,2-a]pyrazin-2(1H)-yl)bicyclo[3.1.0]hexan-6-yl)-1-isopropyl-1H-pyrazol-3-yl)-3-(trifluoromethyl)pyridin-2-amine]	< 0.1 nM
CC(C)n1nc(-c2cnc(N)c(OC(F)F)c2)cc1[C@H]1[C@@H]2C[C@H](N3CCN(CC(F)F)CC3)C[C@@H]21 [compound 264, 5-(5-((1R,3r,5S,6r)-3-(4-(2,2-difluoroethyl)piperazin-1-yl)bicyclo [3.1.0]hexan-6-yl)-1-isopropyl-1H-pyrazol-3-yl)-3-(difluoromethoxy)pyridin-2-amine]	1.8 nM
CC(C)n1nc(-c2cnc(N)c(C(F)(F)F)c2)cc1[C@H]1[C@@H]2C[C@H](N3CCN(CC(F)F)CC3)C[C@@H]21 [compound 265, 5-(5-((1R,3r,5S,6r)-3-(4-(2,2-difluoroethyl)piperazin-1-yl)bicyclo[3.1.0]hexan-6-yl)-1-isopropyl-1H-pyrazol-3-yl)-3-(trifluoromethyl)pyridin-2-amine]	2.5 nM
CC(C)n1nc(-c2cnc(N)c(C(F)(F)F)c2)cc1[C@H]1[C@@H]2C[C@@H](N3CCN(CC(F)F)CC3)C[C@@H]21 [compound 266]	1.1 nM
Nc1ncc(-c2cc([C@H]3[C@@H]4C[C@H](N5CCOCC5)C[C@@H]43)nn2CC2CC2)cc1OC(F)F [compound 267, 5-(1-(cyclopropylmethyl)-3-((1R,3r,5S,6r)-3-morpholinobicyclo [3.1.0]hexan-6-yl)-1H-pyrazol-5-yl)-3-(difluoromethoxy) pyridin-2-amine]	220 nM
Nc1ncc(-c2cc([C@H]3[C@@H]4C[C@@H](N5CCOCC5)C[C@@H]43)nn2CC2CC2)cc1OC(F)F [compound 268, 5-(1-(cyclopropylmethyl)-3-((1R,3s,5S,6r)-3-morpholinobicyclo [3.1.0]hexan-6-yl)-1H-pyrazol-5-yl)-3-(difluoromethoxy) pyridin-2-amine]	221 nM
CC(C)n1nc(-c2cnc(N)c(C(F)(F)F)c2)cc1[C@H]1[C@@H]2C[C@H](N)C[C@@H]21 [compound 269, 5-(5-((1R,3r,5S,6r)-3-amino-bicyclo[3.1.0]hexan-6-yl)-1-isopropyl-1H-pyrazol-3-yl)-3-(trifluoro-methyl)pyridin-2-amine]	4.1 nM
CC(C)n1nc(-c2cnc(N)c(OC(F)F)c2)cc1[C@H]1[C@@H]2C[C@H](N3CC4CC(C3)O4)C[C@@H]21 [compound 271, 5-(5-((1R,3r,5S,6r)-3-(6-oxa-3-azabicyclo[3.1.1]heptan-3-yl)bicyclo[3.1.0]hexan-6-yl)-1-iso-propyl-1H-pyrazol-3-yl)-3-(difluoro-methoxy)pyridin-2-amine]	2.6 nM
COCCO[C@H]1C[C@@H]2[C@H](C1)[C@H]2c1cc(-c2cnc(N)c(C(F)(F)F)c2)nn1C(C)C [compound 272, 5-(1-isopropyl-5-((1R,3r,5S,6r)-3-(2-methoxyethoxy)bicyclo [3.1.0]hexan-6-yl)-1H-pyrazol-3-yl)-3-(trifluoromethyl)pyridin-2-amine]	5.6 nM
Nc1ncc(-c2cc([C@H]3[C@@H]4C[C@H](N5CCOCC5)C[C@@H]43)n(CC3CC3)n2)cc1C(F)(F)F [compound 273, 5-(1-(cyclopropylmethyl)-5-((1R,3r,5S,6r)-3-morpholinobicyclo [3.1.0]hexan-6-yl)-1H-pyrazol-3-yl)-3-(trifluoromethyl)pyridin-2-amine]	1.3 nM
Nc1ncc(-c2cc([C@H]3[C@@H]4C[C@H](N5CCOCC5)C[C@@H]43)n(CC3CC3)n2)cc1OC(F)F [compound 274, 5-(1-(cyclopropylmethyl)-5-((1R,3r,5S,6r)-3-morpholinobicyclo [3.1.0]hexan-6-yl)-1H-pyrazol-3-yl)-3-(difluoromethoxy)pyridin-2-amine]	1.3 nM
COCCO[C@@H]1C[C@@H]2[C@H](C1)[C@H]2c1cc(-c2cnc(N)c(C(F)(F)F)c2)nn1C(C)C [compound 275, 5-(1-isopropyl-5-((1R,3s,5S,6r)-3-(2-methoxyethoxy)bicyclo [3.1.0]hexan-6-yl)-1H-pyrazol-3-yl)-3-(trifluoromethyl)pyridin-2-amine]	4.7 nM
